{
  "source": "patent US20230404985A1",
  "about": "“METHODS OF TREATING TUMORS AND CANCERS HAVING DYSREGULATED WNT SIGNALING PATHWAYS” (ICAHN SCHOOL OF MEDICINE AT MOUNT SINAI, priority 2020, published 2023)",
  "key": {"[1]": {"test_system": "WNT pathway reporter", "test": "GFP-based WNT reporter in stable MYC-CTNNB1 organoids", "format": "cell-based, mouse", "from_the_text": "The library was further refined by performing dose-response curves on tumor organoids and primary human hepatocytes (FIG. 1C). In addition, stable MYC-CTNNB1 organoids expressing a GFP-based WNT reporter were created to assess direct transcriptional inhibition of the pathway. […] WNTinib was exemplary for its therapeutic index, as defined by its preferential activity in the CTNNB1-driven model as compared to hepatocytes."}, "[2]": {"test_system": "cytoplasmic kinases including BRAF and p38α/β", "test": "NanoBRET live cell target engagement, cytoplasmic kinases", "format": "cell-based", "conditions": "relative to sorafenib and regorafenib", "description": "For NanoBRET™ dose response experiments, SNU398 cells were transfected with a MAPK14-NanoLuc© Fusion Vector according to the Promega NanoBRET™ TE Intracellular Kinase Assay protocol. Following overnight transfection, cells were trypsinized and redistributed on a white 96-well plate (20,000 cells per well). Cells were incubated with 1 μM of K-4 Tracer and sorafenib or WNTinib at doses ranging from 0.02→20 μM for two hours. After drug incubation, plates were equilibrated to room temperature for 15 minutes, and NanoBRET™ Nano-Glo© Substrate and Extracellular NanoLuc© Inhibitor were added to wells. Bioluminescent donor (NanoLuc© luciferase) and fluorescent acceptor (Tracer) emission were measured on a GloMax plate reader at 450 and 600 nm, respectively. BRET ratio is reported as acceptor signal divided by the donor signal for each well. Conditions were evaluated in technical triplicates for each experiment, and experiments were repeated in biological duplicates. […] The plate was continuously read on a GloMax plate reader for 2 hours to record BRET signal from the association of the K-4 Tracer with the MAPK14-NanoLuc© Fusion Vector. Conditions were evaluated in technical triplicates, and experiments were repeated in biological duplicates.\nIn order to characterize the direct targets of WNTinib, kinome selectivity profiles were first assessed by in vitro kinase assays. […]"}, "[3]": {"test_system": "MYC-CTNNB1 tumor organoid allografts", "test": "MYC-CTNNB1 tumor organoid allografts", "format": "in vivo, C57BL/6J mice"}, "[4]": {"conditions": "WNTinib 20 mg/kg daily, anti-PD-1 200 μg i.p., start ~350 mm^3"}, "[5]": {"conditions": "tumors of advanced-stage allograft study"}},
  "data": [
    {"compound": "CNC(=O)c1cc(Oc2ccc(NC(=O)Nc3ccc(C(F)(F)C(F)(F)F)cc3)c(F)c2)ccn1", "note": "[WNTinib, 4-(3-fluoro-4-(3-(4-(perfluoroethyl)phenyl)ureido)phenoxy)-N-methylpicolinamide]", "values": [
      {"measurement": "WNT-driven GFP expression (WNT pathway reporter)", "setting": "[1]", "value": "only compound to downregulate WNT-driven GFP expression"},
      {"measurement": "target engagement potency on cytoplasmic kinases BRAF and p38α/β", "setting": "[2]", "value": "markedly less potent than sorafenib and regorafenib"},
      {"measurement": "survival in allograft combination study", "setting": "[3]; [4]", "value": "prolong survival"},
      {"measurement": "tumor regression in allograft combination study", "setting": "[3]; [4]", "value": "able to induce tumor regression"},
      {"measurement": "efficacy in allograft combination study", "setting": "[3]; WNTinib 20 mg/kg, sorafenib 30 mg/kg daily, anti-PD-1 200 μg i.p., start ~350 mm^3", "value": "superior efficacy"},
      {"measurement": "tumor regression", "setting": "[3]; treatment started at 100 mm^3, 30 mg/kg daily oral gavage", "value": "induced significant tumor regression in the majority of animals"},
      {"measurement": "efficacy in advanced-stage setting versus sorafenib", "setting": "[3]; treatment started at 300-400 mm^3, WNTinib 20 mg/kg, sorafenib 30 mg/kg", "value": "superior to the standard of care clinical compound (sorafenib)"},
      {"measurement": "EZH2 T367 phosphorylation in tumors", "setting": "[3]; [5]", "value": "inhibition of EZH2 T367 phosphorylation"},
      {"measurement": "WNT-target genes in tumors (qPCR)", "setting": "[3]; [5]", "value": "in vivo suppression of WNT-target genes"}
    ]}
  ]
}
